Consider four compounds from PMC10534724, “Interaction of ALK Inhibitors with Polyspecific Organic Cation Transporters and the Impact of Substrate-Dependent Inhibition on the Prediction of Drug–Drug Interactions” (Pharmaceutics, 2023).

Read-outs that look alike come from different tables or passages of the source.

Assay [1] has as its target T1, hOCT2 (Homo sapiens, UniProt O15244).
T1 sequence (O15244 1-555): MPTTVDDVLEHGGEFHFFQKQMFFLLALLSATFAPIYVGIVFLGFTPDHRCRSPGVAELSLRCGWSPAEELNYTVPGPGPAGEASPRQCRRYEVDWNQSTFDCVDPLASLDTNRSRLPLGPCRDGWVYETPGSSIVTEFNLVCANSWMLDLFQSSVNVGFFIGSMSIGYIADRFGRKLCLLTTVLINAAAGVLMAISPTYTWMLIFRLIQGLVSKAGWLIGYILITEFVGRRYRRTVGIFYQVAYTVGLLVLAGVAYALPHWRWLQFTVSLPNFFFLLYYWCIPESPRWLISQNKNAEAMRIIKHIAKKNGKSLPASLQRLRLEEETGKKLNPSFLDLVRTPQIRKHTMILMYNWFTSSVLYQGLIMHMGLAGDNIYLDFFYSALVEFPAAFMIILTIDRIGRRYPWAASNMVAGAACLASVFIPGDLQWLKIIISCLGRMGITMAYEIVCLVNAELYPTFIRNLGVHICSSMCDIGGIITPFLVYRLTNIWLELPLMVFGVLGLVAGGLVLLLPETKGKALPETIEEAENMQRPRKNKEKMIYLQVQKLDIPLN
As to the kind of experiment: Inhibition of hOCT2-mediated substrate uptake in transfected HEK293 cells. Format: in vitro ADME. The arrangement: expressed in transfected cells. Particulars: for inhibition at 20 µM: HEK293, 20 µM inhibitor, 1 µM mIBG, 2 min, 37 °C; for In vivo DDI study recommendation, hOCT2: FDA-recommended criteria.

Assay [2] concerns the target T2, hOCT1 (Homo sapiens, UniProt O15245).
T2 construct: expressed in transfected cells
T2 sequence (O15245 1-554): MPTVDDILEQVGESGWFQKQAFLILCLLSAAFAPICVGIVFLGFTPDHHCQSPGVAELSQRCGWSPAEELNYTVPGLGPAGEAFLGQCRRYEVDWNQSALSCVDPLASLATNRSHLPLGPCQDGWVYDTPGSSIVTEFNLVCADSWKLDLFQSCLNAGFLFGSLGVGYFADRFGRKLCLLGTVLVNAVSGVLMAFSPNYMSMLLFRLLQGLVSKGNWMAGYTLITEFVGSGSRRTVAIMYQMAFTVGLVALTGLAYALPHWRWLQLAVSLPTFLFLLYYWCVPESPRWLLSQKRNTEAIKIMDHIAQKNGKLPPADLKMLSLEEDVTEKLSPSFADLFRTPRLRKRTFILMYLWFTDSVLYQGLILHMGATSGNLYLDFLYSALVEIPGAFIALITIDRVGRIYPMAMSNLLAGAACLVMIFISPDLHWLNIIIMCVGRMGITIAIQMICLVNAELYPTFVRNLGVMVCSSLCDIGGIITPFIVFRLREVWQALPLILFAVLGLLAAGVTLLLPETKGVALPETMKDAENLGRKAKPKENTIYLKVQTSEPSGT
As to the kind of experiment: Inhibition of hOCT1-mediated substrate uptake in transfected HEK293 cells. Format: in vitro ADME. Particulars: for In vivo DDI study recommendation, hOCT1: FDA-recommended criteria.

The target in another assay is T3, hOCT3 (Homo sapiens, UniProt O75751).
T3 construct: expressed in transfected cells
T3 sequence (O75751 1-556): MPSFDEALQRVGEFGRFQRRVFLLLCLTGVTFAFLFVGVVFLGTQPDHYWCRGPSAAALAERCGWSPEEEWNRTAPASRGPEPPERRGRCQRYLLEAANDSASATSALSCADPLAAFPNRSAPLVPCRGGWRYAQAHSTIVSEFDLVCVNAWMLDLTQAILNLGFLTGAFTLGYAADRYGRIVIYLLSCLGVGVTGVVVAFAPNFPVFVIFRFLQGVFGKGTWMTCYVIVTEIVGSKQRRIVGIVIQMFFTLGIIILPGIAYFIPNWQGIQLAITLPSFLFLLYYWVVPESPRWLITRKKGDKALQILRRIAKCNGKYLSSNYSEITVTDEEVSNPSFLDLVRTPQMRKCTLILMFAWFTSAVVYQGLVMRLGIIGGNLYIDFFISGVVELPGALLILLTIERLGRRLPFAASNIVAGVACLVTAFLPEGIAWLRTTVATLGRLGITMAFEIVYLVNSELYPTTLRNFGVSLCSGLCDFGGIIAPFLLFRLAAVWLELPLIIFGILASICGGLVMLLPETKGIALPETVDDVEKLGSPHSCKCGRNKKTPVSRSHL
As to the kind of experiment: Inhibition of hOCT3-mediated substrate uptake in transfected HEK293 cells. Format: in vitro ADME. As to conditions: for In vivo DDI study recommendation, hOCT3: FDA-recommended criteria.

A further assay addresses T4, hMATE1 (Homo sapiens, UniProt Q96FL8).
T4 construct: expressed in transfected cells
T4 sequence (Q96FL8 1-570): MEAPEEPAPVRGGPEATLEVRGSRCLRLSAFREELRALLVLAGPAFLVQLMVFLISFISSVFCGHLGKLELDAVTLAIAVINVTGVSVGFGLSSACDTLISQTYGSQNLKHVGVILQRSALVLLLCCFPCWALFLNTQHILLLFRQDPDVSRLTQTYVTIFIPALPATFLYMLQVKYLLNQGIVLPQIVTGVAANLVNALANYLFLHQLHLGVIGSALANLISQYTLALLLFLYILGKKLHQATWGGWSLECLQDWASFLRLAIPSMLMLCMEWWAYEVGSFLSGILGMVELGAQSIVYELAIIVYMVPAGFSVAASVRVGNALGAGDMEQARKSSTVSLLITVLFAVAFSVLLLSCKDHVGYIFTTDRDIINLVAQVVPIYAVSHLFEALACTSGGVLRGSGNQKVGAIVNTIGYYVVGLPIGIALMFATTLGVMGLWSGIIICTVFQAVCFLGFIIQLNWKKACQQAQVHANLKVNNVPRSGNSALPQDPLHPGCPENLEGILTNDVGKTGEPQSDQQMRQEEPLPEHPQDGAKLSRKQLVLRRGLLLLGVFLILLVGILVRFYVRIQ
As to the kind of experiment: Inhibition of hMATE1-mediated substrate uptake in transfected HEK293 cells (pH 8.0). Type of assay: in vitro ADME. As to conditions: for In vivo DDI study recommendation, hMATE1: FDA-recommended criteria.

Another assay addresses T5, hMATE2-K (Homo sapiens, UniProt Q86VL8).
T5 construct: expressed in transfected cells
As to the kind of experiment: Inhibition of hMATE2-K-mediated substrate uptake in transfected HEK293 cells (pH 8.0). Type of assay: in vitro ADME. Particulars: for inhibition at 20 µM: HEK293, 20 µM inhibitor, 1 µM mIBG, 2 min, 37 °C; for In vivo DDI study recommendation, hMATE2-K: FDA-recommended criteria.

The target in assay [3] is T2, hOCT1. The arrangement: method as in PMID 32487736. Particulars: substrate mIBG; HEK293; read-out: IC50, hOCT1-mediated mIBG uptake; cited from earlier work.
The target of assay [4] is T1, hOCT2. Particulars: cited from earlier work.
Where [5] appears, read: HEK293, 20 µM inhibitor, 1 µM mIBG, 2 min, 37 °C.

T5 sequence (Q86VL8 1-566 isoform Q86VL8-3): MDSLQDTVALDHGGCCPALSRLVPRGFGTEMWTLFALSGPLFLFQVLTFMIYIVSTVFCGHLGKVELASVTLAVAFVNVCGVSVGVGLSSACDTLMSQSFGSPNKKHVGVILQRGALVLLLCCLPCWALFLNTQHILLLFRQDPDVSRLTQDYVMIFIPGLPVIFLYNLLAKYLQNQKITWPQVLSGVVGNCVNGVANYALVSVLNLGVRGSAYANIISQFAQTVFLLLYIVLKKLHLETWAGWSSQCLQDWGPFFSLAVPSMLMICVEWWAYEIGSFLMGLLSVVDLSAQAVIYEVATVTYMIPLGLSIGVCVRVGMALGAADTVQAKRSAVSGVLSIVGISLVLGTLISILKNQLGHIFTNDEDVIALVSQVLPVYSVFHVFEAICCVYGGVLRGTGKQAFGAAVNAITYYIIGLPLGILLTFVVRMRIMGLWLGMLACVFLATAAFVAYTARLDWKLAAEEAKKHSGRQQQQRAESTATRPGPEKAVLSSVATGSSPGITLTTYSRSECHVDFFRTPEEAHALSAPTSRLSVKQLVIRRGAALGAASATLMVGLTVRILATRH

As a reminder, the inhibition is how much of the control response was suppressed. Consider `C[C@H]1Oc2cc(cnc2N)-c2c(nn(C)c2C#N)CN(C)C(=O)c2ccc(F)cc21` [lorlatinib], for which the inhibition at 20 µM at hOCT2 [1] was ≤ 50%; on hOCT1 [2] (setting [5]) it was ≤ 50%; at hOCT3 (HEK293, 20 µM inhibitor, 1 µM mIBG, 2 min, 37 °C, read-out: inhibition of mIBG uptake by hOCT3), ≤ 50%; against hMATE1 (setting [5]), ≤ 50%; against hMATE2-K, ≤ 50%.
For the compound `C#Cc1cccc(Nc2ncnc3cc(OCCOC)c(OCCOC)cc23)c1` [erlotinib, Erlotinib], the inhibition at 20 µM against hOCT2 [1] and against hMATE2-K was ≤ 50% in each case.
Broadly, the IC50 is the concentration that gives 50% inhibition. Consider `C[C@@H](Oc1cc(-c2cnn(C3CCNCC3)c2)cnc1N)c1c(Cl)ccc(F)c1Cl` [Crizotinib], for which, on hOCT2 [1] (IC50 ratio MPP+/metformin), the “substrate dependency, hOCT2: more potent with metformin than with MPP+” value is given as ~16 fold. On hOCT2 [1] (IC50 ratio mIBG/metformin), the “substrate dependency, hOCT2: more potent with metformin than with mIBG” value is “approximately 2 fold”. The “In vivo DDI study recommendation, hOCT2” value at hOCT2 [1] (substrate MPP+), on hOCT2 [1] (substrate mIBG) and on hOCT2 [1] (substrate metformin) was “No” each time. Moreover, the concentration for half-maximal inhibition (IC50) at hOCT1 [3] was 40.3 ± 5.5 µM; at hOCT1 [2] (substrate 8.9 µM [14C]metformin, HEK293, 2 min, 37 °C, mean ± SD, read-out: IC50, hOCT1-mediated metformin uptake), 4.98 ± 0.15 µM. Further, the “substrate dependency, hOCT1: more potent with metformin than with MPP+” value on hOCT1 [2] (IC50 ratio MPP+/metformin) is given as ~21 fold. Moreover, the “substrate dependency, hOCT1: more potent with metformin than with mIBG” value at hOCT1 [2] (IC50 ratio mIBG/metformin) is reported as “approximately 8 fold”. For the same compound, the “In vivo DDI study recommendation, hOCT1” value on hOCT1 [2] (substrate MPP+), on hOCT1 [2] (substrate mIBG) and at hOCT1 [2] (substrate metformin) was “No” throughout. For the same compound, the “substrate dependency, hOCT3: differences in IC50 values across substrates” value at hOCT3 (metformin, mIBG, MPP+) is listed as ≤ 5 fold. The “In vivo DDI study recommendation, hOCT3” value at hOCT3 (substrate MPP+), on hOCT3 (substrate mIBG) and on hOCT3 (substrate metformin) was “No” in each case. Also, the “In vivo DDI study recommendation, hMATE1” value on hMATE1 (substrate MPP+), at hMATE1 (substrate mIBG) and on hMATE1 (substrate metformin) was “No” each time. For the same compound, the “substrate dependency, hMATE2-K: more potent with metformin than with MPP+” value on hMATE2-K (IC50 ratio MPP+/metformin) is given as ~12 fold. Further, the “substrate dependency, hMATE2-K: more potent with metformin than with mIBG” value on hMATE2-K (IC50 ratio mIBG/metformin) is on record as “approximately 5 fold”. Moreover, the “In vivo DDI study recommendation, hMATE2-K” value at hMATE2-K (substrate MPP+), on hMATE2-K (substrate mIBG) and at hMATE2-K (substrate metformin) was “No” in each case.
For `CN/C(=N/CCSCc1nc[nH]c1C)NC#N` [cimetidine], the “higher potency on OCT2 with atenolol as substrate compared with metformin” value at hOCT2 [4] is 10 fold.
